Measured values as given in article PMC5354456, “Selective inhibition of RNA polymerase I transcription as a potential approach to treat African trypanosomiasis” (PLoS Neglected Tropical Diseases, 2017).
“Also recorded” adds a separate entry of the source.

Assays:
[1] = test system: Expression Site Body (ESB) and nucleolus of T. brucei; assay: Immunofluorescence microscopy of ESB, VEX1 foci and nucleolus; format: cell-based, Trypanosoma brucei; details: for cells with an ESB / ESB positive cells: one hour, G1 cells, untreated 64 ± 17%
Experimental: Trypanosomes were fixed in 2% paraformaldehyde, permeabilised with 0.1% NP-40 for 5 minutes at room temperature before incubation for one hour with an antibody against the nucleolar marker L1C6 [47] or anti-myc tag antibody (clone 4A6, EMD Millipore). Slides were subsequently incubated with a goat anti-mouse secondary antibody coupled to Alexa-594 (Molecular Probes), before mounting in Vectashield containing DAPI (Vector Laboratories). Microscopy was performed using a Zeiss Imager.M1 microscope equipped with a Zeiss AxioCam MRm camera and Axio Vision Rel 4.8 software. A Z-stack of images was taken at 200 nm intervals, and the images from the individual channels were processed using Image J software. For quantitation of ESB signal using YFP, VEX1 signal using the anti-myc tag antibody or nucleolar signal using the L1C6 antibody, the exposure time and contrast was uniformly adjusted across all conditions. Quantification of ESB and nucleolar signal was carried out using compressed stacks of all appropriate channels in which the images acquired on the Z-axis were analysed. The ESB and nucleolar status was recorded for a total of approximately 100 cells in G1 (two biological replicates of approximately 50 cells) for each condition.

[2] = test system: bloodstream form Trypanosoma brucei; assay: Alamar Blue in vitro cytotoxicity assay, T. brucei SM; format: cell-based; details: for IC50: 72 hour Alamar Blue, mean ± SD, three biological replicates; for T. brucei more sensitive than human cells (selectivity range): compared with MCF10A and BJ3 human cell lines
Experimental: (§1) For proliferation assays, T. brucei SM was treated with inhibitors, and densities were determined using a Neubauer haemocytometer. Growth curves were repeated minimally in triplicate. For wash-out assays, T. brucei SM was treated with various concentrations of inhibitors. After two hours the cells were washed, resuspended in drug free HMI-9 medium, and cell proliferation was monitored using a haemocytometer. For the Alamar Blue in vitro cytotoxicity assay, 200 μl samples of T. brucei SM cells (2 x 10^3 cells ml^-1) were plated in 96 well plates, and incubated for 72 hours with two fold serial dilutions of the inhibitors. At 72 hours, 20 μl of Resazurin (0.125 mg ml^-1) (Sigma) was added, and the parasites were incubated for a further 18 hours. Fluorescence was measured using a Tecan infinite plate reader (excitation at 530 nm, emission at 585 nm). The change in fluorescence (minus the chemical only control) was plotted as a function of the concentration of chemical compound using the sigmoidal dose-response (variable slope) algorithm using GraphPad Prism version 5.

[3] = test system: BJ3 human foreskin fibroblast cell line; assay: IncuCyte cell confluence assay, BJ3 fibroblasts; format: cell-based; details: for IC50: 48 hours IncuCyte, IC50 for cell death, mean ± SD; for selectivity index for T. brucei vs BJ3 human fibroblasts (Incucyte): IC50 BJ3 cell death / IC50 T. brucei
Experimental: (§2) For the mammalian cell toxicity assays, either the spontaneously immortalised Michigan Cancer foundation (MCF10A) human breast epithelial cell line was used, or the BJ3 cell line, which is a human foreskin fibroblast cell line immortalized with the h-Tert catalytic subunit of telomerase. Cells were seeded in 96-well plates, and after 48 hours each well was treated in quintuplicate using ten different concentrations of CX-5461, quarfloxin, BMH-21 or suramin. After incubation for 48 hours, the cells were imaged and cell confluence was calculated using an IncuCyte ZOOM (Essen Biosciences). Cell confluence was normalised to a drug vehicle only control which was set to 100%. An Alamar Blue assay was also performed on the MCF10A cell line in the presence of the different Pol I transcription inhibitors. Here the Alamar Blue readout was also normalised to the vehicle only control. Experiments were performed as three biological replicates with the exception of the Incucyte data for MCF10A in the presence of BMH-21 and doxycycline which were obtained in duplicate. The dose response curves and IC50s were calculated using GraphPad Prism.
In parallel, the BJ3 human foreskin fibroblast cell line that had been immortalised with hTert (the catalytic subunit of telomerase) was also tested for sensitivity to these compounds [46] (S2 Fig)(S3 Fig). The IC50 values corresponding to either growth arrest or cell death shown in S2 Fig were obtained by observing the cell images (S3 Fig) and determining the point where the specific dose curve plateaus at the higher concentrations. If the cells were morphologically sound, then the dose curve represented growth arrest of the cells. If the cells were dead, then the dose curve represented cell death. The IC50 values for cell death were used to calculate the selectivity index scores.

[4] = test system: T. brucei RPA2 Pol I subunit; assay: Western blot of YFP-RPA2 Pol I subunit; format: cell-based, Trypanosoma brucei; details: 3 μM, one hour, T. brucei TY-YFP-RPA2
Experimental: (A) The T. brucei TY-YFP-RPA2 cell line was incubated with various concentrations of BMH-21 for the time indicated in hours. As a control, T. brucei was also incubated with 800 nM of suramin. Lysate from 1 x 10^7 cell equivalents was blotted and probed with anti-TY (BB2) antibody. A band corresponding to T. brucei RPA2 is shown, as well as a Ponceau S stain of the blot to serve as a loading control. Size markers in kiloDaltons (kDa) are indicated. (TIF) Click here for additional data file.

[5] = test system: MCF10A human breast epithelial cell line; assay: IncuCyte cell confluence proliferation assay, MCF10A cells; format: cell-based; details: for IC50: 48 hour IncuCyte, mean ± SD; for selectivity index for T. brucei vs MCF10A (Incucyte): IC50 MCF10A Incucyte / IC50 T. brucei
Experimental: as §2

T. brucei SM [6] = assay: Proliferation assay (growth curves, haemocytometer); format: cell-based, Trypanosoma brucei; details: growth over 48 hours
Experimental: as §1

[7] = test system: MCF10A human breast epithelial cell line; assay: Alamar Blue cytotoxicity assay, MCF10A cells; format: cell-based; details: for IC50: 72 hour Alamar Blue, mean ± SD; for T. brucei more sensitive than MCF10A: Alamar Blue IC50s compared; for selectivity index for T. brucei vs MCF10A (Alamar blue): IC50 MCF10A Alamar blue / IC50 T. brucei
Experimental: as §2

[8] = test system: Pol I transcription (rDNA and VSG221 ES precursor transcripts); assay: RNA precursor transcript analysis by qRT-PCR; format: cell-based, Trypanosoma brucei
Experimental: RNA transcript analysis was performed using quantitative reverse transcription PCR (qRT-PCR). Total RNA was isolated using the RNeasy kit (Qiagen) and DNase treated with TURBO DNA-free kit (Invitrogen). Reverse transcription was performed using 100 ng RNA as a template for cDNA synthesis using random hexamer primers (Promega) and the Omniscript RT kit (Qiagen). qPCR was performed on the 7500 Fast Real-Time PCR system (Life Technologies) using Brilliant II SYBR Green QPCR Low ROX Master Mix (Agilent Technologies). DNase treated RNA without reverse transcriptase was used as a control. The amplification conditions for each primer pair were optimised, and the primer sequences are listed in S1 Table. Transcript levels were normalised against actin mRNA, and plotted as relative change relative to the zero hour time point.

T. brucei SM [9] = assay: Wash-out assay; format: cell-based, Trypanosoma brucei; details: two hours incubation, then wash-out
Experimental: as §1

T. b. rhodesiense = test system: T. b. rhodesiense; set-up: method as in PMID 20149544; details: similar Alamar Blue assay; read-out: IC50 suramin for T. b. rhodesiense; cited from earlier work

SMILES | nucleolar structure (L1C6 marker) ([1]; 3 μM) | cells with an ESB ([1]; 3 μM) | VEX1 signal (ESB marker) ([1]; 3 μM, three hours) | T. brucei more sensitive than human cells (selectivity range) [2] | selectivity index for T. brucei vs BJ3 human fibroblasts (Incucyte) [3] | selectivity index for T. brucei vs MCF10A (Incucyte) [5] | drug concentration that resulted in suppression of proliferative growth in T. brucei (T. brucei SM [6]) | T. brucei more sensitive than MCF10A [7] | selectivity index for T. brucei vs MCF10A (Alamar blue) [7] | IC50 ([7]; Homo sapiens, MCF-10A) | IC50 ([2]; Trypanosoma brucei) | IC50 ([3]; Homo sapiens, Fibroblast) | IC50 ([5]; Homo sapiens, MCF-10A) | reversibility of inhibition of T. brucei proliferation (T. brucei SM [9]) | other results
CN(C)CCNC(=O)c1cccn2c(=O)c3cc4ccccc4cc3nc12 [BMH-21] | nucleoli fragmenting into multiple foci | 1 ± 1.4% | drastically reduced | 3-10 fold | (10x) | (4.6x) | 300 nM | 3.4 fold | (3.4x) | – | – | – | – | – | IC50 [2]: 0.134 ± 0.008 µM; IC50 [3]: 1.36 ± 0.22 µM; degradation of the RPA2 Pol I subunit [4]: we did not see evidence for degradation of the RPA2 Pol I subunit; IC50 [5]: 0.622 ± 0.34 µM; IC50 [7]: 0.46 ± 0.08 µM
C[C@H]1c2cccc(O)c2C(=O)C2=C(O)[C@]3(O)C(=O)C(C(N)=O)=C(O)[C@@H](N(C)C)[C@@H]3[C@@H](O)[C@@H]21 [Doxycycline, doxycycline] | – | – | – | – | – | – | – | – | – | 50.7 ± 33.8 µM | – | – | – | – | –
CN1CCC[C@H]1CCNC(=O)c1cn2c3c(c(N4CCC(c5cnccn5)C4)c(F)cc3c1=O)Oc1cc3ccccc3cc1-2 (some centres unmarked) [Quarfloxin, quarfloxin] | nucleoli fragmenting into multiple foci | No cells contained an ESB; also recorded: none of the cells had an ESB | drastically reduced | 18-40 fold | (18x) | (40x) | 300 nM | 29 fold | (29x) | 4.44 ± 3.29 µM | 0.155 ± 0.009 µM | 2.72 ± 0.17 µM | 6.24 ± 3.87 µM | irreversibly | VSG221 precursor transcript reduced by ([8]; 1 μM, 15 minutes): 94.5 ± 1.9%; VSG pseudogene transcript reduced by ([8]; 1 μM, 15 minutes): 92.3 ± 1.6%; pre-rRNA Precursor 1 transcript levels reduced by (primer a) ([8]; 1 μM, 15 minutes): 98.5 ± 0.66%; rRNA Precursor 2 decreased by (primer b) ([8]; 1 μM, 15 minutes): 91.3 ± 2.6%; rRNA Precursors 2 and 3 reduced by (primer pair c) ([8]; 1 μM, 15 minutes): 83.4 ± 2.1%; rRNA Precursors 2 and 3 reduced by (primer pair d) ([8]; 1 μM, 15 minutes): 89.5 ± 2.7%; Pol II derived tubulin precursor transcript level ([8]; 1 μM, fifteen minutes): 129 ± 10.3 % normal; ESB positive cells ([1]; 300 nM): 30.5 ± 5%; ESB positive cells ([1]; 1 μM): 7.5 ± 0.7%
Cc1ccc(C(=O)Nc2ccc(S(=O)(=O)O)c3cc(S(=O)(=O)O)cc(S(=O)(=O)O)c23)cc1NC(=O)c1cccc(NC(=O)Nc2cccc(C(=O)Nc3cc(C(=O)Nc4ccc(S(=O)(=O)O)c5cc(S(=O)(=O)O)cc(S(=O)(=O)O)c45)ccc3C)c2)c1 [Suramin, suramin] | – | – | – | – | – | – | – | – | – | 1640 ± 317 µM | 0.063 ± 0.005 µM | 890 ± 127 µM | 1260 ± 90 µM | – | effect on Pol I and Pol II derived precursor transcript levels ([8]; 800 nM, 15 minutes): did not lead to reduced levels of any of these transcripts; nucleolar structure (L1C6 marker) ([1]; 800 nM): did not lead to significant changes in structure of the nucleoli; effect on ESB positive cells ([1]; 800 nM, one to three hours): only a marginal reduction in ESB positive cells; ESB as visualised using epitope tagged VEX1 ([1]; 800 nM, three hours): no specific disintegration of the ESB was observed; IC50 (T. b. rhodesiense): 0.053 µM
Cc1cnc(CNC(=O)c2c(=O)c3ccc(N4CCCN(C)CC4)nc3n3c2sc2ccccc23)cn1 [CX-5461] | nucleoli fragmenting into multiple foci | 4.5 ± 0.7% | drastically reduced | 25-35 fold | (35x) | (28x) | 1000 nM | 25 fold | (25x) | 6.89 ± 4.83 µM | 0.279 ± 0.016 µM | 9.78 ± 0.79 µM | 7.84 ± 9.8 µM | irreversibly | repression of Pol I transcription ([8]; 1 μM, 15 minutes): specific knockdown of Pol I transcripts
